Where two headings read alike, the source gives them in different places.
Key:
TK6 cells = tested on: TK6 cells
Procedure: These articles have been recommended for use in the OECD test guideline (Test No. 487)[49]. For metabolic activation, pre-cultured TK6 cells with the culture medium were supplemented with Sprague–Dawley rat liver mix (S9 mix, IEDA TRADING CORPORATION, Japan) at 3.33 vol%. Then, compound was mixed with the cell suspension and treated under the following treatment conditions: • Short-term treatment for 3 h without S9 mix, followed by a 21-h culture (−S9 mix assay), • Short-term treatment for 3 h with S9 mix, followed by a 21-h culture (+S9 mix assay), or • Continuous treatment for 24 h without S9 mix (24-h assay). For treatment conditions 1 and 2, the cells in each well were centrifuged after the 3-h treatment, the supernatants were discarded, and the cells were washed twice with culture medium. The cells were further cultured with fresh culture medium for 21 h. The compound-treated cells were examined by the unaided eye for precipitation of compound at the start and end of treatment. After treatment, the rest of each cell suspension was centrifuged and then the cells were suspended in a 0.075 mol/L KCl solution at room temperature for 10 min. Then, 25 vol% acetic acid containing methanol was added and the centrifuged cells were fixed. The fixed cells were resuspended in a small amount of 3 vol% acetic acid containing methanol, which was changed two times by centrifugation. Finally, a drop of the cell suspension was transferred onto a slide and dried at room temperature. The slides were stained at room temperature in a 3 vol% Giemsa solution (Merck KGaA) diluted with Sörensen phosphate buffer (1/15 mol/L, pH 6.8, Muto Pure Chemicals Co. Ltd.). Four slides per dose (2 slides per well) were prepared. Each slide was coded randomly. The test was conducted at the following doses of TEC-1. -S9 mix assay: 1.5, 1.7, 1.9, 2.1, 2.3, 2.5, 2.7, 2.9, and 3.1 µg/mL, + S9 mix assay: 1.9, 2.1, 2.3, 2.5, 2.7, 2.9, 3.1, 3.3, and 3.5 µg/mL, 24-h assay: 0.9, 1.1, 1.3, 1.5, 1.7, 1.9, 2.1, 2.3, and 2.5 µg/mL. To perform scoring for compound and negative control groups, the number of cells in the suspensions was counted using a Coulter Counter (Z2; Beckman Coulter, Inc.). The positive control groups were not determined. A portion (0.5 mL) of the cell suspension was diluted with 20 mL of Isoton II, and 0.5 mL of this solution was used for cell counts. The cell number per 1 mL at each culture was calculated by the following formula. Cellnumber/mL=Dilutionfactor×valueof1stcount+valueof2ndcount/2×2
The population doubling (PD) and relative population doubling (RPD) at each concentration was calculated by the following formula. PD=log10cell number at the end of culture/cell number at the start of treatment∗/log102∗:1×10^5cells/mL.
RPD%=PD of the compound-treated group/PD of the negative control group×100 For the treated groups, the 3 consecutive concentrations were selected as follows. […] For all concentrations, 4000 mononuclear cells with cytoplasm were analyzed and the number of cells with micronucleus (micronuclei) was counted using a microscope (× 600). Micronucleus is identified as a round or oval small nucleus in the cytoplasm with the same staining intensity as the main nucleus. The diameter of each micronucleus should be less than 1/2 of the diameter of the main nucleus. Two investigators observed the slides. Each investigator scored 1000 cells for the frequency of micronucleated cells. Data from the two investigators were combined for each culture and the combined data from duplicate cultures were pooled for each concentration for each treatment condition. A cell having one or more micronuclei was recorded as a micronucleated cell.

[1] = tested on: 106 representative proteins that are drug discovery targets; assay: Eurofins selectivity panel of 106 representative proteins

## Cc1cn2nc(-c3nc4ccc(N5CCN(C)CC5)cc4c(=O)[nH]3)cc2c(C)n1 [TEC-1, 2-(4,6-dimethylpyrazolo[1,5-a]pyrazin-2-yl)-6-(4-methylpiperazin-1-yl)quinazolin-4(3H)-one]
TK6 cells
  micronucleus induction, overall conclusion: do not induce micronucleation
TK6 cells; 24-h assay condition, culture medium
  concentration at which precipitation was noted: ≥ 1500 ng/mL
TK6 cells; human, 3 h
  concentration at which cytotoxicity (RPD of less than 50%) was noted: ≥ 2300 ng/mL
TK6 cells; human, 3 h, 1.9 µg/mL
  Micronucleated cells (%): (0.73) %
  Micronucleated cells Total: 29
  Micronucleated cells Well 1: 13
  Micronucleated cells Well 2: 16
  Relative population doubling: 68.6%
TK6 cells; human, 3 h, 2.1 µg/mL
  Micronucleated cells (%): (0.9) %
  Micronucleated cells Total: 36
  Micronucleated cells Well 1: 16
  Micronucleated cells Well 2: 20
  Relative population doubling: 65.4%
TK6 cells; human, 3 h, 2.3 µg/mL
  Micronucleated cells (%): (1.4) **^,## %
  Micronucleated cells Total: 56
  Micronucleated cells Well 1: 29
  Micronucleated cells Well 2: 27
  Relative population doubling: 35.0%
TK6 cells; human, 24 h, 1.1 µg/mL
  Micronucleated cells (%): (0.85) %
  Micronucleated cells Total: 34
  Micronucleated cells Well 1: 21
  Micronucleated cells Well 2: 13
  Relative population doubling: 81.7%
TK6 cells; human, 24 h, 1.3 µg/mL
  Micronucleated cells (%): (0.73) %
  Micronucleated cells Total: 29
  Micronucleated cells Well 1: 17
  Micronucleated cells Well 2: 12
  Relative population doubling: 74.4%
TK6 cells; human, 24 h, 1.5 µg/mL
  Micronucleated cells (%): (0.8) %
  Micronucleated cells Total: 32
  Micronucleated cells Well 1: 17
  Micronucleated cells Well 2: 15
  Relative population doubling: 69.5%
[1]
  effect on biological activity of 106 representative proteins: weakly affected the biological activity of only two targets
